In BindingDB's records for doi:10.7270/Q2TX3CTT (Broad Institute, 2010):
Counter-ions that a name gives are not always drawn.

The compounds below were run against Glycogen synthase kinase-3 beta (Homo sapiens, UniProt P49841) (assay: concentration-response blocking of human GSK3B – biochemical, luminescence, cell-free homogeneous, retest, dose response (AID 434954)).
Sequence of Glycogen synthase kinase-3 beta (P49841 whole entry): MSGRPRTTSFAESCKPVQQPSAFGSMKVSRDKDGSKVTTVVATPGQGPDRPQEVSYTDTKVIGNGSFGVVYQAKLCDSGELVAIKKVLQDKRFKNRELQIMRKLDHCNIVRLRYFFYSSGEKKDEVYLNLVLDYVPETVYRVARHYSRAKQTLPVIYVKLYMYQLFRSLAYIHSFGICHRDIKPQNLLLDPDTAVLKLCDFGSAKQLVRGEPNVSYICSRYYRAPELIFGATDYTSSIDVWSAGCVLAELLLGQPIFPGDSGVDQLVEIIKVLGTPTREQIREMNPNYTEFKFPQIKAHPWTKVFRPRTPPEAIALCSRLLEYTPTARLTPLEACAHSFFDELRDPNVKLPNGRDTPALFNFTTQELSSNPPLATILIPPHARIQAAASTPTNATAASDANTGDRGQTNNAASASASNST

Row | Structure (SMILES) | EC50
1 | COc1cccc(C(=O)Nc2nc(C)cs2)c1 | > 300 µM
2 | O=C(CN1C(=O)CCC1=O)Nc1cccc2c1C(=O)NC2=O [MLS000703473] | 2.36 µM
3 | COC(=O)c1nnn(-c2nonc2N)c1CN1CCc2ccccc21 [1-(4-amino-1,2,5-oxadiazol-3-yl)-5-(2,3-dihydroindol-1-ylmethyl)-4-triazolecarboxylic acid methyl ester] | 6.97 µM
4 | COc1ccc(OCCCC(=O)NCc2ccco2)cc1 [N-Furan-2-ylmethyl-4-(4-methoxy-phenoxy)-butyramide] | > 300 µM
5 | CC(=O)Oc1ccc2occ(C(=O)c3cccs3)c2c1 [SMR000106284] | > 300 µM
6 | CC1CCc2c(sc(Nc3nc4c(F)cccc4s3)c2C(N)=O)C1 (configuration not stated) [2-[(4-fluoranyl-1,3-benzothiazol-2-yl)amino]-6-methyl-4,5,6,7-tetrahydro-1-benzothiophene-3-carboxamide] | > 300 µM
7 | CC(=O)Oc1cccc(N2C(=O)c3ccc(C(=O)Nc4cccnc4)cc3C2=O)c1 [SMR000306801] | > 300 µM
8 | Cc1cc(C)cc(NC(=O)NCC2CCN(Cc3cc(C)ccc3C)CC2)c1 [1-(3,5-dimethylphenyl)-3-[[1-[(2,5-dimethylphenyl)methyl]-4-piperidinyl]methyl]urea] | > 300 µM
9 | O=C(C(Cc1ccccc1)n1cccc1)N1CCN(c2cccc(Cl)c2)CC1 (configuration not stated) [SMR000127921] | > 300 µM
10 | N#Cc1c(N)nc2c(c1N)=C(N)SC1=NC(=O)CC(c3ccccc3)C=21 (configuration not stated) [SMR000147833] | > 300 µM
11 | Cc1nc(Nc2ccccc2)sc1C [4,5-dimethyl-N-phenyl-1,3-thiazol-2-amine] | > 300 µM
12 | CON=C(CNC(=O)c1ccc(Cl)cc1Cl)c1ccc(Cl)cc1 [SMR000179199] | > 300 µM
13 | CCOC(=O)c1nnn(-c2nonc2N)c1-c1ccc(OC)cc1 [1-(4-amino-1,2,5-oxadiazol-3-yl)-5-(4-methoxyphenyl)-4-triazolecarboxylic acid ethyl ester] | 14.4 µM
14 | CCCc1cc(=O)[nH]c(SCCOc2ccc(OCC)cc2)n1 | > 300 µM
15 | CCN1CCCC1CNC(=O)c1ccc2c(c1)NC(=O)/C(=C\c1ccc(OC)c(OC)c1)S2 (configuration not stated) [MLS001030689] | 6.6 µM
16 | CNc1nc(N)c([N+](=O)[O-])c(Nc2ccccc2OC)n1 [N4-(2-methoxyphenyl)-N2-methyl-5-nitro-pyrimidine-2,4,6-triamine] | 3.44 µM
17 | NC(=O)CN(c1ccc([N+](=O)[O-])cc1)S(=O)(=O)c1ccccc1 [2-[N-(benzenesulfonyl)-4-nitroanilino]acetamide] | > 300 µM
18 | Cc1ccc(C)c(S(=O)(=O)N2CCN(C(C(=O)Nc3ccc(F)cc3)c3ccccc3)CC2)c1 (configuration not stated) [2-[4-(2,5-dimethylphenyl)sulfonyl-1-piperazinyl]-N-(4-fluorophenyl)-2-phenylacetamide] | > 300 µM
19 | CCOc1ccccc1C=NNC(=O)c1nnn(-c2nonc2N)c1CN1CCC(C)CC1 [SMR000620330] | > 300 µM
20 | C=C1CSc2nc(=O)c3c4c(sc3n21)CCCC4 [MLS000108332] | > 300 µM
21 | CCc1cc2c(s1)NC(=O)CN=C2c1cccs1 | 32.7 µM
22 | CC1(C)CC(=O)C=C(Nc2cccc(Cl)c2Cl)C1 [3-[(2,3-dichlorophenyl)amino]-5,5-dimethylcyclohex-2-en-1-one] | > 300 µM
23 | CCOC(=O)C(CC)Sc1ncnc2nc[nH]c12 (configuration not stated) | > 300 µM

Row | Structure (SMILES) | EC50
24 | Cc1nc(NCCCn2ccnc2)c2ccccc2n1 [N-(3-imidazol-1-ylpropyl)-2-methyl-quinazolin-4-amine;hydrochloride] | > 300 µM
25 | Cc1occc1C(=O)N1CCN(C(=O)C2CCCO2)CC1 (configuration not stated) [1-(2-methyl-3-furoyl)-4-(tetrahydro-2-furanylcarbonyl)piperazine] | > 300 µM
26 | CCSc1nnc(NC(=O)CSc2nnc(CNC(=O)c3cc(OC)c(OC)c(OC)c3)o2)s1 [N-[[5-[2-[(5-ethylsulfanyl-1,3,4-thiadiazol-2-yl)amino]-2-oxoethyl]sulfanyl-1,3,4-oxadiazol-2-yl]methyl]-3,4,5-trimethoxybenzamide] | > 300 µM
27 | O=C1C(=O)N(c2ccccn2)C(c2ccc(Br)cc2)C1C(=O)c1ccc(Br)cc1 (configuration not stated) | > 300 µM
28 | Fc1ccccc1Cn1c2[n+](c3ccc(C(F)(F)F)cc31)CCCCC2 | > 300 µM
29 | COCCOC(=O)C1C(C)=Nc2ncnn2C1c1ccccc1 (configuration not stated) | > 300 µM
30 | CC(C)Nc1nc(-c2ccncc2)nc(-c2ccc(Cl)cc2)c1C#N [SMR000333194] | > 300 µM
31 | O=C(Nc1ccc(Cl)c(Cl)c1)Nc1ccccn1 [SMR000515062] | 47.2 µM
32 | CCCCC(=O)Nc1ccc(C(=O)NNC(=O)CCCOc2ccc(Cl)cc2Cl)cc1 [N-[4-[[[4-(2,4-dichlorophenoxy)-1-oxobutyl]hydrazo]-oxomethyl]phenyl]pentanamide] | > 300 µM
33 | COc1ccccc1Nc1nc(NCc2ccco2)nc(N)c1[N+](=O)[O-] [SMR000436038] | > 300 µM
34 | COc1cc(OC)c2c(-c3ccccc3)cc(=O)oc2c1 [5,7-dimethoxy-4-phenyl-chromen-2-one] | > 300 µM
35 | Cc1ccc(CNc2nc(N)c([N+](=O)[O-])c(Nc3ccc(F)cc3)n2)cc1 [N4-(4-fluorophenyl)-N2-[(4-methylphenyl)methyl]-5-nitro-pyrimidine-2,4,6-triamine] | > 300 µM
36 | NS(=O)(=O)c1ccc(Nc2nc(-c3ccc(O)cc3O)cs2)cc1 [4-(4-(2,4-dihydroxyphenyl)thiazol-2-ylamino)benzenesulfonamide] | 5.73 µM
37 | CCN(CC)Cc1c(C(=O)OC(C)C)nnn1-c1nonc1N [propan-2-yl 1-(4-azanyl-1,2,5-oxadiazol-3-yl)-5-(diethylaminomethyl)-1,2,3-triazole-4-carboxylate] | > 300 µM
38 | Cc1ccsc1CN=Nc1ncnc2nc[nH]c12 [N-[(3-methyl-2-thiophenyl)methylideneamino]-7H-purin-6-amine] | 9 µM
39 | COc1ccc(-c2nn(CCC(=O)O)cc2/C=C/C(=O)O)cc1[N+](=O)[O-] [3-[4-[(E)-2-carboxyethenyl]-3-(4-methoxy-3-nitrophenyl)pyrazol-1-yl]propanoic acid] | > 300 µM
40 | Cc1ccnc(SCCn2c(N3CCOCC3)nc3c2c(=O)[nH]c(=O)n3C)n1 [3-methyl-7-[2-(4-methylpyrimidin-2-yl)sulfanylethyl]-8-morpholin-4-ylpurine-2,6-dione] | > 300 µM
41 | Nc1nonc1-n1nnc(C(=O)NN=Cc2cccc(O)c2)c1CN1CCCC1 [1-(4-azanyl-1,2,5-oxadiazol-3-yl)-N-[(3-hydroxyphenyl)methylideneamino]-5-(pyrrolidin-1-ylmethyl)-1,2,3-triazole-4-carboxamide] | 12.8 µM
42 | O=C(OCCCOC(=O)c1ccccc1O)c1ccccc1O [2-hydroxybenzoic acid 3-[(2-hydroxyphenyl)-oxomethoxy]propyl ester] | > 300 µM
43 | Cc1ccccc1N(CC(=O)NN=Cc1cc(Br)c(C)o1)S(C)(=O)=O [N-[(4-bromo-5-methylfuran-2-yl)methylideneamino]-2-(2-methyl-N-methylsulfonylanilino)acetamide] | > 300 µM
44 | COc1cccc(C(=O)NCC(c2ccco2)N2CCc3ccccc3C2)c1 (configuration not stated) [N-[2-(3,4-dihydro-1H-isoquinolin-2-yl)-2-(furan-2-yl)ethyl]-3-methoxy-benzamide] | > 300 µM
45 | COC(=O)c1sc(=S)n(Cc2ccccc2)c1C [methyl 3-benzyl-4-methyl-2-sulfanylidene-1,3-thiazole-5-carboxylate] | > 300 µM
46 | CC(C)Cc1ccccc1O [SMR000639202] | > 300 µM

Row | Structure (SMILES) | EC50
47 | CCOc1ccccc1N1CCN(S(=O)(=O)c2cc(C)ccc2OC)CC1 [MLS000703554] | > 300 µM
48 | CSc1nc(SCC(=O)NC(c2ccccc2)c2ccccc2)c2c3c(sc2n1)CN(C)CC3 | > 300 µM
49 | O=C(OCCN1CCCCC1)c1ccc(O)cc1 [4-hydroxybenzoic acid 2-(1-piperidinyl)ethyl ester] | > 300 µM
50 | CCCOc1cc(C)nc(-c2ccccc2O)n1 [(6E)-6-(6-methyl-4-propoxy-1H-pyrimidin-2-ylidene)-1-cyclohexa-2,4-dienone] | > 300 µM
51 | c1ccc(Cn2c(-c3ccco3)nc3nc4ccccc4nc32)cc1 [3-benzyl-2-(furan-2-yl)imidazo[4,5-b]quinoxaline] | > 300 µM
52 | O=C(O)c1ccccc1NC(=O)c1ccccc1Nc1ccccc1 [2-[(2-phenylazanylphenyl)carbonylamino]benzoic acid] | > 300 µM
53 | COc1ccc2c(c1)-c1c(ssc1=S)C(C)(C)N2 [SMR000116363] | 6.72 µM
54 | CC(C)=CCc1cc([C@@H]2CC(=O)c3ccc(O)c(CC=C(C)C)c3O2)ccc1O [MLS000697605] | 58.4 µM
55 | COC(=O)c1sccc1NC(=O)c1cccc(OC)c1 [methyl 3-[(3-methoxyphenyl)carbonylamino]thiophene-2-carboxylate] | > 300 µM
56 | Cc1cc([N+](=O)[O-])c(C)cc1-c1ccc(/C=N/n2cnnc2)o1 [1-[5-(2,5-dimethyl-4-nitrophenyl)furan-2-yl]-N-(1,2,4-triazol-4-yl)methanimine] | > 300 µM
57 | CCOC(=O)c1cnc2ccc(Cl)cc2c1N1CCN(C)CC1 [6-chloro-4-(4-methyl-1-piperazinyl)-3-quinolinecarboxylic acid ethyl ester] | 14.8 µM
58 | Cc1ccc(C(=O)NN=C2CCCc3ccccc32)c(C)c1 [MLS001005817] | > 300 µM
59 | COc1cccc(CNC(=O)C2CCN(S(=O)(=O)c3ccc(-n4cnnn4)cc3)CC2)c1 [SMR000600329] | > 300 µM
60 | CCCn1c(SCC(=O)N2CCCCC2)nnc1-c1ccccn1 [1-piperidin-1-yl-2-[(4-propyl-5-pyridin-2-yl-1,2,4-triazol-3-yl)sulfanyl]ethanone] | > 300 µM
61 | O=C1NCCCc2c1oc1ccc(O)cc21 [7-hydroxy-2,3,4,5-tetrahydro-[1]benzofuro[2,3-c]azepin-1-one] | 2.07 µM
62 | CC(C)CCSc1nnc(N)s1 [MLS000861787] | > 300 µM
63 | Cc1ccc2c(c1)cc1c(=O)n(CC(=O)NCCN3CCCC3)nc(C)n12 | > 300 µM
64 | COc1ccc(C(=O)ON=C(C)c2ccccc2)cc1 [SMR000159704] | 20.9 µM
65 | Cc1ccc(NC(=S)NC2CC3CCC(C2)N3Cc2ccco2)c(C)c1 (configuration not stated) [1-(2,4-dimethylphenyl)-3-[8-(2-furanylmethyl)-8-azabicyclo[3.2.1]octan-3-yl]thiourea] | > 300 µM
66 | COc1ccc(CNC(=O)CN(Cc2cccs2)C(=O)CCC(=O)Nc2ccccn2)cc1 [MLS000687650] | 13.4 µM
67 | CCCN(CCC)Cc1c(C(=O)NN=Cc2ccco2)nnn1-c1nonc1N | > 300 µM
